ChEMBL document CHEMBL5506003, “Design and biological evaluation of dual tubulin/HDAC inhibitors based on millepachine for treatment of prostate cancer” (Eur J Med Chem, 2024)
The source made the active and inactive calls. The rule behind the calls is not given here.

Assays:
[1] = AUC(0 to t) in Sprague-Dawley rat at 2 mg/kg, iv measured upto 24 hrs by HPLC-MS analysis; type: ADME, organism-based; conditions: in vivo
[2] = Clearance in Sprague-Dawley rat at 2 mg/kg, iv measured upto 24 hrs by HPLC-MS analysis; type: ADME, organism-based; conditions: in vivo
PC-3 [3] = assay: Induction of apoptosis in human PC-3 cells assessed as necrotic cells at 0.16 uM incubated for 24 hrs by Annexin V-FITC and PI staining based flow cytometry (reference value: 0.13%); type: functional
Histone deacetylase 1 = Histone deacetylase 1 (Homo sapiens, UniProt Q13547); assay: Inhibition of HDAC1 in human PC-3 cells assessed as increase in acetylated Histone-H3 level incubated for 24 hrs by Western blotting assay; type: cell-based; conditions: dose 0.08-0.32 µM
PC-3 [4] = assay: Induction of apoptosis in human PC-3 cells assessed as late apoptotic cells at 0.16 uM incubated for 24 hrs by Annexin V-FITC and PI staining based flow cytometry (reference value: 1.02%); type: functional
A549 [5] = assay: Cytotoxicity against human A549 cells incubated for 72 hrs by MTT assay; conditions: A549, 72 h
A549 [6] = assay: Inhibition of cell migration in human A549 cells at 0.4 to 1.6 uM incubated for 24 hrs by crystal violet staining based transwell method; type: functional; conditions: dose 0.4-1.6 µM
PC-3 [7] = assay: Induction of apoptosis in human PC-3 cells assessed as viable cells at 0.08 uM incubated for 24 hrs by Annexin V-FITC and PI staining based flow cytometry (reference value: 97.5%); type: functional; conditions: read-out: Activity
MCF7 = assay: Cytotoxicity against human MCF7 cells incubated for 72 hrs by MTT assay; conditions: MCF7, 72 h
PC-3 [8] = assay: Induction of apoptosis in human PC-3 cells assessed as downregulation of Bim expression at 0.08 to 0.32 uM by Western blotting analysis; type: functional, cell-based; conditions: dose 0.08-0.32 µM
PC-3 [9] = assay: Induction of cell cycle arrest in human PC-3 cells assessed as G1 phase cells at 0.32 uM incubated for 24 hrs by PI staining based flow cytometry analysis (reference value: 56.17%); type: functional
PC-3 [10] = assay: Induction of apoptosis in human PC-3 cells assessed as upregulation of cleaved PARP expression at 0.08 to 0.32 uM by Western blotting analysis; type: functional, cell-based; conditions: dose 0.08-0.32 µM
PC-3 [11] = assay: Induction of mitochondrial membrane potential loss in human PC-3 cells assessed as increase in monomer JC-1 level by measuring green fluorescence intensity at 0.32 uM incubated for 24 hrs by JC-1 staining based flow cytometry analysis (reference value: 6.44%); type: functional
PC-3 [12] = assay: Induction of apoptosis in human PC-3 cells assessed as early apoptotic cells at 0.08 uM incubated for 24 hrs by Annexin V-FITC and PI staining based flow cytometry (reference value: 1.32%); type: functional
PC-3 [13] = assay: Induction of cell cycle arrest in human PC-3 cells assessed as S phase cells at 0.16 uM incubated for 24 hrs by PI staining based flow cytometry analysis (reference value: 31.7%); type: functional
[14] = MRT(0 to t) in Sprague-Dawley rat at 2 mg/kg, iv measured upto 24 hrs by HPLC-MS analysis; type: ADME, organism-based; conditions: in vivo
PC-3 [15] = assay: Induction of apoptosis in human PC-3 cells assessed as early apoptotic cells at 0.32 uM incubated for 24 hrs by Annexin V-FITC and PI staining based flow cytometry (reference value: 1.32%); type: functional
PC-3 [16] = assay: Induction of cell cycle arrest in human PC-3 cells assessed as S phase cells at 0.32 uM incubated for 24 hrs by PI staining based flow cytometry analysis (reference value: 31.7%); type: functional
PC-3 [17] = assay: Induction of apoptosis in human PC-3 cells assessed as early apoptotic cells at 0.16 uM incubated for 24 hrs by Annexin V-FITC and PI staining based flow cytometry (reference value: 1.32%); type: functional
PC-3 [18] = assay: Induction of mitochondrial membrane potential loss in human PC-3 cells assessed as decrease in JC-1 aggregate level by measuring red fluorescence intensity at 0.32 uM incubated for 24 hrs by JC-1 staining based flow cytometry analysis (reference value: 93.5%); type: functional; set-up: scale not given: the % may be the effect or the level left
PC-3 [19] = assay: Induction of cell cycle arrest in human PC-3 cells assessed as G1 phase cells at 0.08 uM incubated for 24 hrs by PI staining based flow cytometry analysis (reference value: 56.17%); type: functional
PC-3 [20] = assay: Induction of cell cycle arrest in human PC-3 cells assessed as G2/M phase cells at 0.16 uM incubated for 24 hrs by PI staining based flow cytometry analysis (reference value: 12.83%); type: functional
PC-3 [21] = assay: Induction of cell cycle arrest in human PC-3 cells assessed as decrease in phosphorylated Cdc2 at […] by Western blotting analysis; type: functional, cell-based; conditions: dose 0.08-0.32 µM
[22] = Half-life in Sprague-Dawley rat at 2 mg/kg, iv measured upto 24 hrs by HPLC-MS analysis; type: ADME, organism-based; conditions: in vivo
Histone deacetylase 2 = Histone deacetylase 2 (Homo sapiens, UniProt Q92769); assay: Inhibition of HDAC2 in human HeLa nuclear extracts incubated for 30 mins by fluorescence based assay; type: cell-based
PC-3 [23] = assay: Antitumor activity against human PC-3 cells xenografted in BALB/c nude mouse assessed as tumor growth inhibition at 20 mg/kg, iv administered every 2 days and measured after 3 weeks; type: functional; conditions: PC-3, 48 h, time 2 day, read-out: TGI

Chain of Histone deacetylase 2 (Q92769 whole entry): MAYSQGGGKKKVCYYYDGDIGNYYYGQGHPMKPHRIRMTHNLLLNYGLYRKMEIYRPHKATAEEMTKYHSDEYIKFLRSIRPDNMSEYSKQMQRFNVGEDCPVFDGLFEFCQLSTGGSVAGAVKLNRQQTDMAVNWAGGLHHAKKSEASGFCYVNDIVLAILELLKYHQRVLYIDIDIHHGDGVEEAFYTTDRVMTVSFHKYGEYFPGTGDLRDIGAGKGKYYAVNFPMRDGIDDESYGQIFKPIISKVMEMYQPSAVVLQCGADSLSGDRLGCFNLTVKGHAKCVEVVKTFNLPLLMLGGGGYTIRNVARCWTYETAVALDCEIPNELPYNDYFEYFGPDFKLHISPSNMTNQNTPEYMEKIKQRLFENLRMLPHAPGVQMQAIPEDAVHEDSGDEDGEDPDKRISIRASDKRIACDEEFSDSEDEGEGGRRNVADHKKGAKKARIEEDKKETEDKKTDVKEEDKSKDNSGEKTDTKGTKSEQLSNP
Chain of Histone deacetylase 1 (Q13547 whole entry): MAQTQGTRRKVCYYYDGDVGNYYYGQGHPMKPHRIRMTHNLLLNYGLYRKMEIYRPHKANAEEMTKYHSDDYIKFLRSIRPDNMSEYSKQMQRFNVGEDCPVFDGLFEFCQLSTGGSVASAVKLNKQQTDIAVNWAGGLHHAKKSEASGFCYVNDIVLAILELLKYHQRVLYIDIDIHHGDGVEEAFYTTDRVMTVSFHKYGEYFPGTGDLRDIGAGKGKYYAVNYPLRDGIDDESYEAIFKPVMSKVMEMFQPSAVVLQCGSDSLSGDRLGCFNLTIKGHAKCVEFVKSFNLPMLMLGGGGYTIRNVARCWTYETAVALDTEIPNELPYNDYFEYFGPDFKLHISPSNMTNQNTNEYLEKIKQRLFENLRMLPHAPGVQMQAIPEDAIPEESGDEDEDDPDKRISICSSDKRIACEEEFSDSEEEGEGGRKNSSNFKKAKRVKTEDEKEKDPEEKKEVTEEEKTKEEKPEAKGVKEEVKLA

With `COc1ccc(/C=C/C(=O)c2ccc(OC)c3c2OC(C)(C)C=C3)cc1NCC(=O)NO` the AUCt [1] was 9084 µg/L/h, the clearance [2] was 5 mL/min/kg and the Activity (PC-3 [3]) was 0.47%. The inhibition (Histone deacetylase 1) was “Dose-Dependent Effect”, the Activity (PC-3 [4]) was 5.28% and the IC50 (A549 [5]) was 290 nM. The inhibition (A549 [6]) was “Active”, the viability at 0.08 µM (PC-3 [7]) was 94.8% and the IC50 (MCF7) was 160 nM. For the same molecule, the Activity (PC-3 [8]) was “Active”, the Activity (PC-3 [9]) was 6% and the Activity (PC-3 [10]) was “Active”. It also gave an Activity (PC-3 [11]) of 38.8%, an Activity (PC-3 [12]) of 2.52% and an Activity (PC-3 [13]) of 28.7%. It also gave an MRT last at 24 h [14] of 1.32 h, an Activity (PC-3 [15]) of 63.8% and an Activity (PC-3 [16]) of 10.6%. It also gave an Activity (PC-3 [17]) of 15.5%, an Activity (PC-3 [18]) of 58.9% and an Activity (PC-3 [19]) of 34.64%. For the same molecule, the Activity (PC-3 [20]) was 50.56%, the Activity (PC-3 [21]) was “Active” and the half-life [22] was 0.91 h. It also gave an IC50 (Histone deacetylase 2) of 430 nM and an inhibition in vivo at 20 mg/kg (PC-3 [23]) of 90.1%.
